In patent US4514413A, “Gastric acid secretion inhibiting N-(imidazol-1-ylalkyl)thiourea derivatives” (BASF Aktiengesellschaft, priority 1982, dated 1985):

Legend:
[1] = system: secretion of gastric acid; assay: Inhibition of the gastric secretion in the rat (pH at the surface of the gastric mucous membrane); type: in vivo, female Sprague-Dawley rats; conditions: for R.A. (relative activity), inhibition of the gastric secretion: cimetidine = 1.00, subcutaneous administration; for ED 0.75 (dose which increases the pH by 0.75 on average compared with untreated control animals): subcutaneous administration, 1 hour pretreatment, 48 h fasted
Protocol: Inhibition of the secretion of gastric acid results in an increase in the pH of the gastric mucus membrane. This is investigated on groups of 5 conscious female Sprague-Dawley rats weighing 160-180 g. The animals receive no food for 48 hours (water ad libitum), and are pretreated subcutaneously with various doses of the test substances. […] The dose which increases the pH by 0.75 on average compared with untreated control animals is determined, as the ED 0.75, from the linear regression between the logarithms of the applied doses and the increase in the pH (Table 2).

[2] = biological target: T1, histamine H2 receptor (Rattus norvegicus, UniProt P25102); assay: Inhibition of the dimaprit-induced lowering of the blood pressure (histamine H2 receptor-blocking action); type: in vivo, male Sprague-Dawley rats; conditions: for R.A. (relative activity), inhibition of the dimaprit-induced lowering of the blood pressure / inhibition of dimaprit-induced lowering of the blood pressure (in words): rat
T1 construct: In male Sprague-Dawley rats (weight 210-310 g) which have been anesthetized with urethane; from tissue; host or cells: whole animal in vivo: anesthetized male Sprague-Dawley rats
T1 sequence (P25102 whole entry): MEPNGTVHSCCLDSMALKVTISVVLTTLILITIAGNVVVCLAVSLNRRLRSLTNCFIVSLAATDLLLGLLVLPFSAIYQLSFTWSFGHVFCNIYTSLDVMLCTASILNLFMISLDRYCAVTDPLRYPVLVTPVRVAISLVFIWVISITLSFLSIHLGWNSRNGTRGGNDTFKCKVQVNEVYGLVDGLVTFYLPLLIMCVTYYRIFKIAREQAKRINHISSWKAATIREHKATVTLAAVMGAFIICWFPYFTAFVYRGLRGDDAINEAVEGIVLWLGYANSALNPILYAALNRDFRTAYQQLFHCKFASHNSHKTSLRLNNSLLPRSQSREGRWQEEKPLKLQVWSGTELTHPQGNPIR
Protocol: The substances tested were administered intravenously 5 minutes before the dimaprit injection. The ED 50% is determined as the dose which inhibits the dimaprit-induced lowering of the blood pressure by 50% (Table 1).

[3] = cimetidine = 1.00, urethane anesthesia, intravenous administration
[4] = urethane anesthesia, intravenous administration

Structure (SMILES): CN/C(=N/CCSCc1nc[nH]c1C)NC#N [Cimetidine, reference compound]
- R.A. (relative activity), inhibition of the gastric secretion [1]: 1.00
- ED 0.75 (dose which increases the pH by 0.75 on average compared with untreated control animals) [1]: 0.45 mg/kg
- R.A. (relative activity), inhibition of the dimaprit-induced lowering of the blood pressure [2, 3]: 1.00
- inhibition of dimaprit-induced lowering of the blood pressure (in words) [2, 4]: specific and dose-dependent inhibition

Structure (SMILES): Cc1nccn1CCCNC(=S)NCCSCc1ccc(CN(C)C)o1.O=C(O)C(=O)O.O=C(O)C(=O)O [Example No. 1, N-[3-(2-methylimidazol-1-yl)-propyl]-N'-{2-[[5-(N,N-dimethylaminomethyl)-furan-2-yl]-methylthio]-ethyl}-thiourea dioxalate]
- R.A. (relative activity), inhibition of the gastric secretion [1]: 8.65
- ED 0.75 (dose which increases the pH by 0.75 on average compared with untreated control animals) ([1]; in mg/kg): 0.052
- times more effective than cimetidine ([1]; vs cimetidine, inhibition of gastric acid secretion, subcutaneous): 8.7 times
- times more effective than ranitidine ([1]; vs ranitidine, inhibition of gastric acid secretion, subcutaneous): 1.7 times
- R.A. (relative activity), inhibition of the dimaprit-induced lowering of the blood pressure ([2]; in vivo, iv): 23.91

Structure (SMILES): CC(C)c1nccn1CCCNC(=S)NCCSCc1ccc(CN(C)C)o1 [Example No. 2, N-[3-(2-isopropylimidazol-1-yl)-propyl]-N'-{2-[[5-(N,N-dimethylaminomethyl)-furan-2-yl]-methylthio]-ethyl}-thiourea]
- R.A. (relative activity), inhibition of the dimaprit-induced lowering of the blood pressure [2, 3]: 22.00

Structure (SMILES): CCc1nccn1CCCNC(=S)NCCSCc1ccc(CN(C)C)o1 [Example No. 3, N-[3-(2-ethylimidazol-1-yl)-propyl]-N'-{2-[[5-(N,N-dimethylaminomethyl)-furan-2-yl]-methylthio]-ethyl}-thiourea dioxalate]
- R.A. (relative activity), inhibition of the dimaprit-induced lowering of the blood pressure [2, 3]: 12.94

Structure (SMILES): CCCc1nccn1CCCNC(=S)NCCSCc1ccc(CN(C)C)o1 [Example No. 4]
- R.A. (relative activity), inhibition of the dimaprit-induced lowering of the blood pressure [2, 3]: 10.00

Structure (SMILES): Cc1nc(C)n(CCCNC(=S)NCCSCc2ccc(CN(C)C)o2)c1C [Example No. 8, N[3-(2,4,5-trimethylimidazol-1-yl)-propyl]-N'{2-[[5-(N,Ndimethylamino-methyl)-furan-2-yl]-methylthio]-ethyl}-thiourea]
- R.A. (relative activity), inhibition of the dimaprit-induced lowering of the blood pressure [2, 3]: 26.19

Structure (SMILES): CCc1ncc(C)n1CCCNC(=S)NCCSCc1ccc(CN(C)C)o1 [Example No. 9]
- R.A. (relative activity), inhibition of the dimaprit-induced lowering of the blood pressure [2, 3]: 10.00

Structure (SMILES): CNC(=C[N+](=O)[O-])NCCSCc1ccc(CN(C)C)o1 [Ranitidine, reference compound]
- R.A. (relative activity), inhibition of the gastric secretion [1]: 5.23
- ED 0.75 (dose which increases the pH by 0.75 on average compared with untreated control animals) ([1]; in mg/kg): 0.086
- R.A. (relative activity), inhibition of the dimaprit-induced lowering of the blood pressure ([2]; in vivo, iv): 10.48
- inhibition of dimaprit-induced lowering of the blood pressure (in words) [2, 4]: specific and dose-dependent inhibition

Structure (SMILES): CN(C)CCCSC(=N)N [dimaprit, S-[3-(N,N-dimethylamino)-propyl]-isothiourea, reference compound]
- average lowering of the blood pressure ([2]; dimaprit 3.16 mg intravenously, initial pressures 100±1.1 mm Hg, N=70): 27±0.7 mm Hg
